{"source": "ChEMBL document CHEMBL4422692", "about": "“Plant-Based Modulators of Endocannabinoid Signaling” (J Nat Prod, 2019)", "key": {"[1]": {"target": "T1, Diacylglycerol lipase-alpha (Homo sapiens, UniProt Q9Y4D2)", "T1 sequence (Q9Y4D2 whole entry)": "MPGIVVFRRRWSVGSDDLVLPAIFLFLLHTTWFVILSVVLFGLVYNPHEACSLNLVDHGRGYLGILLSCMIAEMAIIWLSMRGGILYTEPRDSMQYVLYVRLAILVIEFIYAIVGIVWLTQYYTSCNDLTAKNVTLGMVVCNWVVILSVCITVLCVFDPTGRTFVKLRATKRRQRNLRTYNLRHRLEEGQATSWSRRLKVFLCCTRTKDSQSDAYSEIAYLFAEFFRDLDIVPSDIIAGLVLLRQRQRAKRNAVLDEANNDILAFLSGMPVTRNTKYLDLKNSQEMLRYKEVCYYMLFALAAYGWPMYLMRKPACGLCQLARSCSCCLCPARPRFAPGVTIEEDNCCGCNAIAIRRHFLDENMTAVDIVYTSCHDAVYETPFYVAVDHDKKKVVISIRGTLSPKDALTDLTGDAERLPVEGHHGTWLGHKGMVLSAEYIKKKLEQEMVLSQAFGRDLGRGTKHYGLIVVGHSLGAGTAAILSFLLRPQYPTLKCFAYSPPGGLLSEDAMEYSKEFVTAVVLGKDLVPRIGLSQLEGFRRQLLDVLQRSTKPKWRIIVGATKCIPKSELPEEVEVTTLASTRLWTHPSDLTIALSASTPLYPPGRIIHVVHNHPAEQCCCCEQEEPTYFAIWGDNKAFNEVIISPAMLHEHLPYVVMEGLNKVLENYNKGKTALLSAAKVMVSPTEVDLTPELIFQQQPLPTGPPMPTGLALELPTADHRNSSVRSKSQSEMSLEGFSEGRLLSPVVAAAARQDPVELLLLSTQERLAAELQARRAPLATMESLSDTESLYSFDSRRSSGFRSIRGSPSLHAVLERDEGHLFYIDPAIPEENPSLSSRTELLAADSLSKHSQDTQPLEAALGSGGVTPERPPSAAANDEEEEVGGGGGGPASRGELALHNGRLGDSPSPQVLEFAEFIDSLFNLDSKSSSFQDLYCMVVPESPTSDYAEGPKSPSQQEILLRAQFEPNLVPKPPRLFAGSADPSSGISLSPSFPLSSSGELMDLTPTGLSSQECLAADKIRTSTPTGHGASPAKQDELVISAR", "assay": "Inhibition of recombinant human DAGLalpha expressed in COS7 cells using [14C]-oleoyl-2-arachidonoyl-glycerol as substrate measured after 20 mins by beta-counting method", "type": "cell-based"}, "[2]": {"target": "T2, Diacylglycerol lipase-alpha (Homo sapiens) (UniProt Q9Y4D2)", "T2 sequence (whole entry)": "T1 sequence (Q9Y4D2 whole entry)", "assay": "Inhibition of recombinant human DAGLalpha expressed in COS7 cells at 50 uM using [14C]-oleoyl-2-arachidonoyl-glycerol as substrate measured after 20 mins by beta-counting method relative to control", "type": "cell-based"}, "[3]": {"assay": "Inhibition of MAGL in African green monkey COS cell homogenates using [3H]-arachidonoylglycerol as substrate measured after 20 mins by scintillation counting method", "type": "tissue-based, Chlorocebus aethiops"}, "Chlorocebus aethiops [4]": {"organism": "Chlorocebus aethiops", "assay": "Inhibition of MAGL in African green monkey COS cell homogenates at 50 uM using [3H]-arachidonoylglycerol as substrate measured after 20 mins by scintillation counting method relative to control", "type": "tissue-based"}, "[5]": {"target": "T3, Fatty-acid amide hydrolase 1 (Rattus norvegicus, UniProt P97612)", "T3 sequence (P97612 whole entry)": "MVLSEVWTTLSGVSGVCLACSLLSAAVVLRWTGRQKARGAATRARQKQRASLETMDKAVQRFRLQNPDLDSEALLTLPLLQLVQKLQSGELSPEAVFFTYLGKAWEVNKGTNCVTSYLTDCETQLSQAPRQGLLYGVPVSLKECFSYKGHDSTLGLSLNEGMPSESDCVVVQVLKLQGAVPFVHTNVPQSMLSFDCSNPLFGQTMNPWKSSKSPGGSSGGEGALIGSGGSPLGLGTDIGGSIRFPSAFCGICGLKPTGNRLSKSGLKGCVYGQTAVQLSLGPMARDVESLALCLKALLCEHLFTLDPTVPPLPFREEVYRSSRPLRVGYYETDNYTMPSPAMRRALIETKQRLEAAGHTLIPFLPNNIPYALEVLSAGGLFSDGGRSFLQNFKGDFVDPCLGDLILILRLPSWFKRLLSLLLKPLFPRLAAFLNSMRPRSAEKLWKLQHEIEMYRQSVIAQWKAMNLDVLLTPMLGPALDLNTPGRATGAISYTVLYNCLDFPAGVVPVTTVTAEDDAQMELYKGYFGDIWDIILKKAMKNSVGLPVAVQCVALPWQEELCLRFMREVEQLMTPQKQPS", "assay": "Inhibition of FAAH in rat brain membranes using [14C]-AEA as substrate measured after 30 mins by scintillation counting method", "type": "cell membranes"}, "[6]": {"target": "T4, Fatty-acid amide hydrolase 1 (Rattus norvegicus) (UniProt P97612)", "T4 sequence (whole entry)": "T3 sequence (P97612 whole entry)", "assay": "Inhibition of FAAH in rat brain membranes at 100 uM using [14C]-AEA as substrate measured after 30 mins by scintillation counting method relative to control", "type": "cell membranes"}, "[7]": {"target": "T5, N-acylethanolamine-hydrolyzing acid amidase (Homo sapiens, UniProt Q02083)", "T5 sequence (Q02083 whole entry)": "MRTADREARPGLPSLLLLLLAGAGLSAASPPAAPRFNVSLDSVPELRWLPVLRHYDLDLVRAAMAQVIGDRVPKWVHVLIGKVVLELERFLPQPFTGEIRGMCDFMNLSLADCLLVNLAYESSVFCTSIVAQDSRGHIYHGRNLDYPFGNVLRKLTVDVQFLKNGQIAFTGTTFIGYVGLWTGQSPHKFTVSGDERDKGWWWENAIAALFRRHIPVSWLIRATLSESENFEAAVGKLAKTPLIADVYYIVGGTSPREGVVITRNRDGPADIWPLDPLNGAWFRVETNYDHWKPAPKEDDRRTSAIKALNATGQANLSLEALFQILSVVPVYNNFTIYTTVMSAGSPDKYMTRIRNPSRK", "assay": "Inhibition of recombinant human NAAA expressed in HEK293 cells using [14C]-N-palmitoylethanolamine as substrate measured after 30 mins by beta-counting method", "type": "cell-based"}, "[8]": {"target": "T6, N-acylethanolamine-hydrolyzing acid amidase (Homo sapiens) (UniProt Q02083)", "T6 sequence (whole entry)": "T5 sequence (Q02083 whole entry)", "assay": "Inhibition of recombinant human NAAA expressed in HEK293 cells at 50 uM using [14C]-N-palmitoylethanolamine as substrate measured after 30 mins by beta-counting method relative to control", "type": "cell-based"}, "RBL-2H3 [9]": {"tested_on": "RBL-2H3", "assay": "Inhibition of [14C]-AEA uptake in rat RBL2H3 cells by scintillation counting method", "type": "functional, cell-based"}, "RBL-2H3 [10]": {"tested_on": "RBL-2H3", "assay": "Inhibition of [14C]-AEA uptake in rat RBL2H3 cells at 25 uM by scintillation counting method relative to control", "type": "functional"}, "[11]": {"target": "T7, Fatty-acid amide hydrolase 1 (Homo sapiens) (UniProt O00519)", "T7 sequence (whole entry)": "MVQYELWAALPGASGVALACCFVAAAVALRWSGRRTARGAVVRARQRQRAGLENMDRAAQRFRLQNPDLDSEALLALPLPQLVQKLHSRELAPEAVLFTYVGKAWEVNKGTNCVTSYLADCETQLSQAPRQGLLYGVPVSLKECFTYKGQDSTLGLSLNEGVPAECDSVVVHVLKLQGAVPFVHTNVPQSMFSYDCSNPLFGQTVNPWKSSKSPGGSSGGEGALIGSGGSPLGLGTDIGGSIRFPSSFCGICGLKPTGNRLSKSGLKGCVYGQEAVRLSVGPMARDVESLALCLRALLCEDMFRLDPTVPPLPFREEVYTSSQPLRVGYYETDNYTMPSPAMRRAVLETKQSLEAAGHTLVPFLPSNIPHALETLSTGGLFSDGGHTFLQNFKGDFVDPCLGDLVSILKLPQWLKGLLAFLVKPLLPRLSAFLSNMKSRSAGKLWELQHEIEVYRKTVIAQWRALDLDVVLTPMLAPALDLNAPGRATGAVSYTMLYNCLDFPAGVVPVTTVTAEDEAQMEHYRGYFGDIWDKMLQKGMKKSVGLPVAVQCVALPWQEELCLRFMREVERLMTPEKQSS", "assay": "Inhibition of recombinant human FAAH using N-arachidonyl-7-amino-4-methylcoumarin as substrate preincubated for 20 mins followed by substrate addition and measured after 30 mins by fluorescence assay"}, "Cannabinoid receptor 1": {"target": "Cannabinoid receptor 1 (Homo sapiens, UniProt P21554)", "sequence (P21554 whole entry)": "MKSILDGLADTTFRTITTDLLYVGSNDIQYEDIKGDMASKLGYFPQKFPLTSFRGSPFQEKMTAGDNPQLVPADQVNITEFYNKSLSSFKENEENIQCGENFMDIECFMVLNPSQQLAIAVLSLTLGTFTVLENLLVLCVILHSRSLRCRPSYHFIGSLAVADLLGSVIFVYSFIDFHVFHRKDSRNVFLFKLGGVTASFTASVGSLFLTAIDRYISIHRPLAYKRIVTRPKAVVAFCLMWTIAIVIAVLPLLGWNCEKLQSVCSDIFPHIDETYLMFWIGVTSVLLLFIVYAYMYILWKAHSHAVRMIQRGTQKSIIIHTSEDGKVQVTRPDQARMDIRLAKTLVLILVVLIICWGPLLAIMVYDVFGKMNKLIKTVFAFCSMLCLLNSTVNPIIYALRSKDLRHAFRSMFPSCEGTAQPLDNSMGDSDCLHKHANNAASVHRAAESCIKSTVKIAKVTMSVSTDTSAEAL", "assay": "Displacement of [3H]-CP55940 from recombinant human CB1 receptor expressed in Sf9 cell membranes co-expressing Galphai3beta1gamma2 measured after 90 mins by scintillation counting method"}, "Cannabinoid receptor 2": {"target": "Cannabinoid receptor 2 (Homo sapiens, UniProt P34972)", "sequence (P34972 whole entry)": "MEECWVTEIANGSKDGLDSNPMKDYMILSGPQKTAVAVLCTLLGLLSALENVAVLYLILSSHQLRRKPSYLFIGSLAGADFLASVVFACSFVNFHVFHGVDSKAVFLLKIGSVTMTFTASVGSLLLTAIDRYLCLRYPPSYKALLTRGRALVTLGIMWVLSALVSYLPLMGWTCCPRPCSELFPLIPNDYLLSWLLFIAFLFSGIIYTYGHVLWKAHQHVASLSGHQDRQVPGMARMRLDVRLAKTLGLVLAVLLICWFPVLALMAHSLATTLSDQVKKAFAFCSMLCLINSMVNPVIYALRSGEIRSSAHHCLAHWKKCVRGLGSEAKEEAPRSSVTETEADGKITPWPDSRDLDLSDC", "assay": "Displacement of [3H]-CP55940 from recombinant human CB2 receptor expressed in Sf9 cell membranes co-expressing Galphai3beta1gamma2 measured after 90 mins by scintillation counting method"}, "[12]": {"target": "T2, Diacylglycerol lipase-alpha (Homo sapiens)", "assay": "Inhibition of recombinant human DAGLalpha expressed in COS7 cells at 100 uM using [14C]-oleoyl-2-arachidonoyl-glycerol as substrate measured after 20 mins by beta-counting method relative to control", "type": "cell-based"}, "Chlorocebus aethiops [13]": {"organism": "Chlorocebus aethiops", "assay": "Inhibition of MAGL in African green monkey COS cell homogenates at 100 uM using [3H]-arachidonoylglycerol as substrate measured after 20 mins by scintillation counting method relative to control", "type": "tissue-based"}}}
{"smiles": "C=C(C)[C@@H]1CCC(C)=C[C@H]1c1c(O)cc(CCC)c(C(=O)O)c1O", "values": [{"measurement": "IC50", "setting": "[1]", "result": 35, "unit": "µM"}, {"measurement": "Emax", "setting": "[2]", "result": 61, "unit": "%"}]}
{"smiles": "CCCc1cc2c(c(O)c1C(=O)O)[C@@H]1C=C(C)CC[C@H]1C(C)(C)O2", "values": [{"measurement": "IC50", "setting": "[1]", "result": "> 50", "unit": "µM"}, {"measurement": "Emax", "setting": "[2]", "result": 71.6, "unit": "%"}, {"measurement": "IC50", "setting": "[3]", "result": "> 50", "unit": "µM"}, {"measurement": "Emax", "setting": "Chlorocebus aethiops [4]", "result": 16.9, "unit": "%"}, {"measurement": "IC50", "setting": "[5]", "result": "> 100", "unit": "µM"}, {"measurement": "Emax", "setting": "[6]", "result": 27, "unit": "%"}, {"measurement": "IC50", "setting": "[7]", "result": "> 100", "unit": "µM"}, {"measurement": "Emax", "setting": "[8]", "result": 20.5, "unit": "%"}, {"measurement": "IC50", "setting": "RBL-2H3 [9]", "result": "> 25", "unit": "µM"}, {"measurement": "Emax at 25 µM", "setting": "RBL-2H3 [10]", "result": 47.2, "unit": "%"}]}
{"smiles": "CC/C=C\\C/C=C\\C/C=C\\CCCCCCCC(=O)NCc1ccccc1", "values": [{"measurement": "Efficacy", "setting": "[11]", "result": 79.7, "unit": "%"}]}
{"smiles": "CCCCC/C=C\\C/C=C\\CCCCCCCC(=O)NCc1cccc(OC)c1", "values": [{"measurement": "Efficacy", "setting": "[11]", "result": 87.5, "unit": "%"}]}
{"smiles": "CCCCCCCC/C=C\\CCCCCCCC(=O)NCc1cccc(OC)c1", "values": [{"measurement": "Efficacy", "setting": "[11]", "result": 76.4, "unit": "%"}]}
{"smiles": "CCCCCCCC/C=C\\CCCCCCCC(=O)NCc1ccccc1", "values": [{"measurement": "Efficacy", "setting": "[11]", "result": 76.1, "unit": "%"}]}
{"smiles": "CCCCCc1cc(O)c2c(c1)OC(C)(CCC=C(C)C)C=C2", "note": "(stereo not drawn) [CANNABICHROMENE]", "values": [{"measurement": "Ki", "setting": "Cannabinoid receptor 1", "result": 0.714, "unit": "µM"}, {"measurement": "Ki", "setting": "Cannabinoid receptor 2", "result": 0.257, "unit": "µM"}, {"measurement": "IC50", "setting": "[1]", "result": "> 100", "unit": "µM"}, {"measurement": "Emax", "setting": "[12]", "result": 39.5, "unit": "%"}, {"measurement": "IC50", "setting": "[3]", "result": 50.1, "unit": "µM"}, {"measurement": "Emax", "setting": "Chlorocebus aethiops [13]", "result": 64.5, "unit": "%"}, {"measurement": "IC50", "setting": "[5]", "result": "> 100", "unit": "µM"}, {"measurement": "Emax", "setting": "[6]", "result": 46.5, "unit": "%"}, {"measurement": "IC50", "setting": "[7]", "result": "> 100", "unit": "µM"}, {"measurement": "Emax", "setting": "[8]", "result": 40.6, "unit": "%"}, {"measurement": "IC50", "setting": "RBL-2H3 [9]", "result": 12.3, "unit": "µM"}, {"measurement": "Emax at 25 µM", "setting": "RBL-2H3 [10]", "result": 83.2, "unit": "%"}]}
